The target of this assay is T1, AlaRS R329H binding to GST-Nrp1 b1 (Homo sapiens, UniProt P49588, R329H).
T1 construct: made in house; host or cells: E. coli BL21 (DE3), pET-21a for AlaRS
T1 sequence (P49588 1-968 R329H): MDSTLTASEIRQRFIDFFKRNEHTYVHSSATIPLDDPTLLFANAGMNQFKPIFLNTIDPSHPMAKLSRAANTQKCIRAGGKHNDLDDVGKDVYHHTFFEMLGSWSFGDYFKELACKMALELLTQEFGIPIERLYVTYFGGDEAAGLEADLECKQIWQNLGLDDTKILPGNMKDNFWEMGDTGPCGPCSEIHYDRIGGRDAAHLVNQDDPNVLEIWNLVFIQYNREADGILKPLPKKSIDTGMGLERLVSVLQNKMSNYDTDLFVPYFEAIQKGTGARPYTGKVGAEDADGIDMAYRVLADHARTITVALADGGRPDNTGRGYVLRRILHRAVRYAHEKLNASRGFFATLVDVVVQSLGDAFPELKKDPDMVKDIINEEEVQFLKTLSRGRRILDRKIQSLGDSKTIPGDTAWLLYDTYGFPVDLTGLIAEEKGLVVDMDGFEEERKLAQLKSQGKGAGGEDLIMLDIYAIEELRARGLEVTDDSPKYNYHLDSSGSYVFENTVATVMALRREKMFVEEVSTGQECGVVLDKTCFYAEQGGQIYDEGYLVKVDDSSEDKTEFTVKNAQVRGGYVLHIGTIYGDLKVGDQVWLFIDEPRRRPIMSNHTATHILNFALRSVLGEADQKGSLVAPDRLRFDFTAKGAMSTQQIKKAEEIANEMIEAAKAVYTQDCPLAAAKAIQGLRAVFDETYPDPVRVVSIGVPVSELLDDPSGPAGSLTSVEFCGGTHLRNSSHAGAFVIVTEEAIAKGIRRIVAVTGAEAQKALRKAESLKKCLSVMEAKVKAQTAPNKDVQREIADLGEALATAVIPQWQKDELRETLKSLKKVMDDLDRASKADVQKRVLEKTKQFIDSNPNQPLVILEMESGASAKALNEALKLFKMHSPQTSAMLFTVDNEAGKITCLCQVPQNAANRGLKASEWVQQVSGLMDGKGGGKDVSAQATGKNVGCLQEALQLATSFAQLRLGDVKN
In words: GST pull down assay. The following applies: 20 µM Tanshinone I, ImageJ, average of three repeats.

Consider `Cc1coc2c1C(=O)C(=O)c1c-2ccc2c(C)cccc12` [Tanshinone I], for which the “Mean density band (R329H), relative quantification of AlaRS mutant pulled down” value amounted to 0.84.
